# Measurements taken from article PMC9841524, “Structure-Based Rational Design of Small α-Helical Peptides with Broad-Spectrum Activity against Multidrug-Resistant Pathogens” (Journal of Medicinal Chemistry, 2022).
# Read-outs that look alike come from different tables or passages of the source. Where no end group is shown, it is not given here.
# Columns and labels:
# [1] = tested on: S. pneumoniae (ATCC 700677); details: Gram-positive, multi-drug resistant (penicillin, tetracycline, erythromycin); CAMHB + 2.5% lysed horse blood, 37 °C, 24 h; highest MIC of three independent experiments in triplicate
# Procedure, shortened: (§1)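 Inoculum 10^6 CFU/mL in CAMHB against 2-fold peptide series; salt variants used 150 mM NaCl, 4.5 mM KCl, 6 mM NH4Cl, 1 mM MgCl2, 2 mM CaCl2, or 25% FBS.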
# E. faecalis (ATCC 29212) = details: Gram-positive; CLSI microdilution, CAMHB, 37 °C, 24 h; highest MIC of three independent experiments in triplicate
# Procedure, shortened: as §1
# [2] = tested on: Bacillus subtilis (ATCC 6633)
# Procedure, shortened: as §1
# MRSA (ATCC BAA-1556) = details: for MIC, MRSA (ATCC BAA-1556), Control: MH media without salt ions or serum; for MIC, MRSA (ATCC BAA-1556), Control / MIC, MRSA (ATCC BAA-1556), MgCl2 / MIC, MRSA (ATCC BAA-1556), CaCl2 / MIC, MRSA (ATCC BAA-1556), KCl / MIC, MRSA (ATCC BAA-1556), NH4Cl / MIC, MRSA (ATCC BAA-1556), NaCl / MIC, MRSA (ATCC BAA-1556), FBS (25%): three independent experiments in triplicate; for MIC, MRSA (ATCC BAA-1556): broth microdilution (CLSI), CAMHB, 37 °C, 24 h; for MIC, MRSA (ATCC BAA-1556), MgCl2: media with 1 mM MgCl2; for MIC, MRSA (ATCC BAA-1556), CaCl2: media with 2 mM CaCl2; for MIC, MRSA (ATCC BAA-1556), KCl: media with 4.5 mM KCl; for MIC, MRSA (ATCC BAA-1556), NH4Cl: media with 6 mM NH4Cl; for MIC, MRSA (ATCC BAA-1556), NaCl: media with 150 mM NaCl; for MIC, MRSA (ATCC BAA-1556), FBS (25%): media with 25% fetal bovine serum
# Procedure, shortened: as §1
# [3] = tested on: Bacillus cereus (ATCC 13061)
# Procedure, shortened: as §1
# S. aureus (ATCC 29213) = assay: MIC, standard microtiter dilution (CLSI); type: cell-based; details: broth microdilution (CLSI), CAMHB, 37 °C, 24 h
# Procedure, shortened: as §1
# E. coli (ATCC BAA-2452) = details: Gram-negative, NDM-1; CLSI microdilution, CAMHB, 37 °C, 24 h; highest MIC of three independent experiments in triplicate
# Procedure, shortened: as §1
# E. coli (ATCC 25922) = details: for MIC, E. coli (ATCC 25922): broth microdilution (CLSI), CAMHB, 37 °C, 24 h
# Procedure, shortened: as §1
# [4] = tested on: P. aeruginosa (ATCC BAA-1744); details: Gram-negative, resistant strain (marked a; imipenem resistant in Table S3); CLSI microdilution, CAMHB, 37 °C, 24 h; highest MIC of three independent experiments in triplicate
# Procedure, shortened: as §1
# [5] = tested on: K. pneumonia (ATCC BAA-2470); details: Gram-negative, carbapenem-resistant; CLSI microdilution, CAMHB, 37 °C, 24 h; highest MIC of three independent experiments in triplicate
# Procedure, shortened: as §1
# [6] = tested on: P. aeruginosa (ATCC 10145); details: ATCC 10145, 24 h
# Procedure, shortened: as §1
# [7] = tested on: A. baumannii (ATCC BAA1605); details: Gram-negative, footnote e ciprofloxacin (MDR in Table S3); CLSI microdilution, CAMHB, 37 °C, 24 h; highest MIC of three independent experiments in triplicate
# Procedure, shortened: as §1
# [8] = tested on: Klebsiella pneumonia (ATCC 13883); details: ATCC 13883, 24 h
# Procedure, shortened: as §1
# [9] = Relative hydrophobicity as RP-HPLC retention time; type: physicochemical; details: chromatographic, Phenomenex Luna C18 4 μm 150 × 4.6 mm, linear AB gradient 1% acetonitrile/min, 0.3 mL/min, A water 0.1% TFA, B acetonitrile 0.1% TFA, 25 °C
# Protocol: The purity analysis of the peptides was conducted on a RP-HPLC system (Shimadzu; LC-20ADXR) by using a Phenomenex (Luna) analytical C18 column (4 μm, 150 × 4.6 mm). The mass of the purified peptides was determined in the positive-ion mode using Q-TOF LC/MS (Compass Hystar 4.1, Bruker, USA). The purity (>95%) and mass data of all the synthesized peptides are provided in the Supporting Information.
# 8. Comparative Hydrophobicity analysis
# The purity of all synthesized peptides was determined using reverse phase analytical HPLC
# (Shimadzu; LC-20ADXR). Below mentioned are the conditions used to conduct the purity
# Column: Phenomenex (Luna), 4 um, C18, 150 × 4.6 mm
# Mobile Phase: Buffer A-Water containing 0.1% TFA,
# Buffer B-Acetonitrile containing 0.1% TFA
# Figure S52. HPLC chromatogram of 6a.
# (1 picture or pasted object on this page, not shown here)
# [10] = Gram-positive, CLSI microdilution, CAMHB, 37 °C, 24 h, highest MIC of three independent experiments in triplicate
# [11] = 10^6 CFU/mL, highest MIC of three independent experiments in triplicate
Compound,"MIC, S. pneumoniae (ATCC 700677) [1]","MIC, E. faecalis (ATCC 29212) (E. faecalis (ATCC 29212))","MIC, MRSA (ATCC BAA-1556), Control (MRSA (ATCC BAA-1556))","MIC, MRSA (ATCC BAA-1556) (MRSA (ATCC BAA-1556); [11])","MIC, MRSA (ATCC BAA-1556), MgCl2 (MRSA (ATCC BAA-1556))","MIC, MRSA (ATCC BAA-1556), CaCl2 (MRSA (ATCC BAA-1556))","MIC, MRSA (ATCC BAA-1556), KCl (MRSA (ATCC BAA-1556))","MIC, MRSA (ATCC BAA-1556), NH4Cl (MRSA (ATCC BAA-1556))","MIC, MRSA (ATCC BAA-1556), NaCl (MRSA (ATCC BAA-1556))","MIC, MRSA (ATCC BAA-1556), FBS (25%) (MRSA (ATCC BAA-1556))","MIC, MRSA (ATCC BAA-1556) (MRSA (ATCC BAA-1556); value in parentheses (μM))","MIC, S. aureus (ATCC 29213) (S. aureus (ATCC 29213); [11])","MIC, S. aureus (ATCC 29213) (S. aureus (ATCC 29213); value in parentheses (μM))",other results
"CCCCCCCCCC(=O)N[C@@H](Cc1c[nH]c2ccccc12)C(=O)N[C@H](CC(N)=O)C(=O)N[C@@H](CC(=O)O)C(=O)N[C@@H]1C(=O)NCC(=O)N[C@@H](CCCN)C(=O)N[C@@H](CC(=O)O)C(=O)N[C@H](C)C(=O)N[C@@H](CC(=O)O)C(=O)NCC(=O)N[C@H](CO)C(=O)N[C@@H]([C@H](C)CC(=O)O)C(=O)N[C@@H](CC(=O)c2ccccc2N)C(=O)O[C@@H]1C [daptomycin, reference compound]",12.5 µg/mL,6.2 µg/mL,1.5 µg/mL,1.5 µg/mL,3.1 µg/mL,3.1 µg/mL,1.5 µg/mL,1.5 µg/mL,1.5 µg/mL,3.1 µg/mL,0.86 µM,0.7 µg/mL,0.43 µM,"MIC, Bacillus subtilis (ATCC 6633) [2, 10]: 0.7 µg/mL; MIC, Bacillus cereus (ATCC 13061) [3, 10]: 1.5 µg/mL"
KWIKKWIKWWKK-NH2 [7b],25 µg/mL,12.5 µg/mL,6.2 µg/mL,6.2 µg/mL,6.2 µg/mL,12.5 µg/mL,12.5 µg/mL,12.5 µg/mL,25 µg/mL,25 µg/mL,3.53 µM,6.2 µg/mL,3.53 µM,"MIC, E. coli (ATCC BAA-2452) (E. coli (ATCC BAA-2452)): 6.2 µg/mL; MIC, E. coli (ATCC 25922), Control (E. coli (ATCC 25922); ATCC 25922, 24 h): 6.2 µg/mL; MIC, E. coli (ATCC 25922), FBS (25%) (E. coli (ATCC 25922); ATCC 25922, 24 h): 50 µg/mL; MIC, E. coli (ATCC 25922), KCl (E. coli (ATCC 25922); ATCC 25922, 24 h): 25 µg/mL; MIC, E. coli (ATCC 25922), NH4Cl (E. coli (ATCC 25922); ATCC 25922, 24 h): 25 µg/mL; MIC, E. coli (ATCC 25922), NaCl (E. coli (ATCC 25922); ATCC 25922, 24 h): 25 µg/mL; MIC, E. coli (ATCC 25922) (E. coli (ATCC 25922); [11]): 6.2 µg/mL; MIC, E. coli (ATCC 25922), MgCl2 (E. coli (ATCC 25922); media with 1 mM MgCl2, three independent experiments in triplicate): 12.5 µg/mL; MIC, E. coli (ATCC 25922), CaCl2 (E. coli (ATCC 25922); media with 2 mM CaCl2, three independent experiments in triplicate): 12.5 µg/mL; MIC, E. coli (ATCC 25922) (E. coli (ATCC 25922); value in parentheses (μM)): 3.53 µM; MIC, P. aeruginosa (ATCC BAA-1744) [4]: 12.5 µg/mL; MIC, K. pneumonia (ATCC BAA-2470) [5]: 25 µg/mL; MIC, P. aeruginosa (ATCC 10145) [6]: 6.2 µg/mL; MIC, Bacillus subtilis (ATCC 6633) ([2]; ATCC 6633, 24 h): 3.1 µg/mL; MIC, A. baumannii (ATCC BAA1605) [7]: 12.5 µg/mL; MIC, Bacillus cereus (ATCC 13061) ([3]; ATCC 13061, 24 h): 6.2 µg/mL; MIC, Klebsiella pneumonia (ATCC 13883) [8]: 25 µg/mL; tR, RP-HPLC retention time (measure of overall hydrophobicity) [9]: 32.23 min"
